Species: Rattus norvegicus
Assay: DrugMatrix - Regimen: Daily Repeat
Assay type: toxicity, organism-based, Sprague-Dawley
Design: regimen Daily Repeat, gender Male, age 6-8 weeks
Settings: in vivo, po, route oral GAVAGE, […]; for SODIUM / TOTAL BILIRUBIN / TOTAL PROTEIN / URIC ACID / ALANINE AMINOTRANSFERASE / ALBUMIN / ALKALINE PHOSPHATASE / ASPARTATE AMINOTRANSFERASE / BLOOD UREA NITROGEN / CARBON DIOXIDE / CHLORIDE / CHOLESTEROL / CREATINE PHOSPHOKINASE / CREATININE / GLUCOSE / LACTATE DEHYDROGENASE / LIPASE / PHOSPHORUS / POTASSIUM: tissue Plasma; for ABSOLUTE BASOPHIL / ABSOLUTE EOSINOPHIL / ABSOLUTE LYMPHOCYTE / ABSOLUTE MONOCYTE / ABSOLUTE SEGMENTED NEUTROPHIL / BASOPHIL / EOSINOPHIL / ERYTHROCYTE COUNT / HEMATOCRIT / HEMOGLOBIN / LEUKOCYTE COUNT / LYMPHOCYTE / MEAN CORPUSCULAR HEMOGLOBIN / MEAN CORPUSCULAR HEMOGLOBIN CONCENTRATION / MEAN CORPUSCULAR VOLUME / MONOCYTE / NEUTROPHIL / NUCLEATED RED BLOOD CELLS / PLATELET COUNT: tissue Blood
[1] = 12 mg/kg, 72 h, dose level M1, time 3 day
[2] = 12 mg/kg, 120 h, dose level M1, time 5 day
[3] = 75 mg/kg, 72 h, dose level M2, time 3 day
[4] = 75 mg/kg, 120 h, dose level M2, time 5 day

With `C#C[C@]1(O)CC[C@H]2[C@@H]3CCC4=CC(=O)CC[C@@H]4[C@H]3CC[C@@]21C` [NORETHINDRONE] the SODIUM [1] was 144.57 MEQ/L, the “TOTAL BILIRUBIN” value [1] was 0.1 mg/dL and the “TOTAL PROTEIN” value [1] was 6.07 G/DL. The “URIC ACID” value [1] was 1 mg/dL, the “ABSOLUTE BASOPHIL” value [2] was 0 CELLS/uL and the “ABSOLUTE EOSINOPHIL” value [2] was 35 CELLS/uL. The “ABSOLUTE LYMPHOCYTE” value [2] was 6197.67 CELLS/uL, the “ABSOLUTE MONOCYTE” value [2] was 151.67 CELLS/uL and the “ABSOLUTE SEGMENTED NEUTROPHIL” value [2] was 315.67 CELLS/uL. For the same compound, the BASOPHIL [2] was 0%, the EOSINOPHIL [2] was 0.67% and the “ERYTHROCYTE COUNT” value [2] was 6.19 x10E6/uL. The HEMATOCRIT [2] was 37.27%, the HEMOGLOBIN [2] was 14.27 G/DL and the “LEUKOCYTE COUNT” value [2] was 6.7 x10E3/uL. The LYMPHOCYTE [2] was 92.67%, the “MEAN CORPUSCULAR HEMOGLOBIN” value [2] was 23.1 pg and the “MEAN CORPUSCULAR HEMOGLOBIN CONCENTRATION” value [2] was 38.3 G/DL. For the same compound, the “MEAN CORPUSCULAR VOLUME” value [2] was 60.33 fL, the MONOCYTE [2] was 2% and the NEUTROPHIL [2] was 4.67%. For the same compound, the “NUCLEATED RED BLOOD CELLS” value [2] was 0 /100WBC, the “PLATELET COUNT” value [2] was 1179.67 x10E3/uL and the “ALANINE AMINOTRANSFERASE” value [2] was 68.33 u/L. The ALBUMIN [2] was 4.67 G/DL, the “ALKALINE PHOSPHATASE” value [2] was 474.33 u/L and the “ASPARTATE AMINOTRANSFERASE” value [2] was 95.67 u/L. For the same compound, the “BLOOD UREA NITROGEN” value [2] was 10 mg/dL, the “CARBON DIOXIDE” value [2] was 25.67 mmol/L and the CHLORIDE [2] was 106.67 MEQ/L. The CHOLESTEROL [2] was 26 mg/dL, the “CREATINE PHOSPHOKINASE” value [2] was 277.33 u/L and the CREATININE [2] was 0.25 mg/dL. For the same compound, the GLUCOSE [2] was 177.33 mg/dL, the “LACTATE DEHYDROGENASE” value [2] was 205 u/L and the LIPASE [2] was 8 u/L. For the same compound, the PHOSPHORUS [2] was 12.13 mg/dL, the POTASSIUM [2] was 5.86 MEQ/L and the SODIUM [2] was 149.4 MEQ/L. The “TOTAL BILIRUBIN” value [2] was 0.1 mg/dL, the “TOTAL PROTEIN” value [2] was 6.73 G/DL and the “URIC ACID” value [2] was 1.83 mg/dL. The “ABSOLUTE BASOPHIL” value [3] was 0 CELLS/uL, the “ABSOLUTE EOSINOPHIL” value [3] was 0 CELLS/uL and the “ABSOLUTE LYMPHOCYTE” value [3] was 4761.67 CELLS/uL. For the same compound, the “ABSOLUTE MONOCYTE” value [3] was 38.67 CELLS/uL, the “ABSOLUTE SEGMENTED NEUTROPHIL” value [3] was 433 CELLS/uL and the BASOPHIL [3] was 0%. For the same compound, the EOSINOPHIL [3] was 0%, the “ERYTHROCYTE COUNT” value [3] was 5.41 x10E6/uL and the HEMATOCRIT [3] was 33.4%. For the same compound, the HEMOGLOBIN [3] was 12.87 G/DL, the “LEUKOCYTE COUNT” value [3] was 5.23 x10E3/uL and the LYMPHOCYTE [3] was 91%. The “MEAN CORPUSCULAR HEMOGLOBIN” value [3] was 23.77 pg, the “MEAN CORPUSCULAR HEMOGLOBIN CONCENTRATION” value [3] was 38.53 G/DL and the “MEAN CORPUSCULAR VOLUME” value [3] was 61.77 fL. The MONOCYTE [3] was 0.67%, the NEUTROPHIL [3] was 8.33% and the “NUCLEATED RED BLOOD CELLS” value [3] was 0 /100WBC. The “PLATELET COUNT” value [3] was 1166.67 x10E3/uL, the “ALANINE AMINOTRANSFERASE” value [3] was 57 u/L and the ALBUMIN [3] was 4.57 G/DL. For the same compound, the “ALKALINE PHOSPHATASE” value [3] was 692 u/L, the “ASPARTATE AMINOTRANSFERASE” value [3] was 76.67 u/L and the “BLOOD UREA NITROGEN” value [3] was 7.67 mg/dL. For the same compound, the “CARBON DIOXIDE” value [3] was 30.67 mmol/L, the CHLORIDE [3] was 104 MEQ/L and the CHOLESTEROL [3] was 29 mg/dL. For the same compound, the “CREATINE PHOSPHOKINASE” value [3] was 225 u/L, the CREATININE [3] was 0.14 mg/dL and the GLUCOSE [3] was 135.67 mg/dL. For the same compound, the “LACTATE DEHYDROGENASE” value [3] was 89 u/L, the LIPASE [3] was 8 u/L and the PHOSPHORUS [3] was 10.6 mg/dL. The POTASSIUM [3] was 5.59 MEQ/L, the SODIUM [3] was 145.07 MEQ/L and the “TOTAL BILIRUBIN” value [3] was 0.17 mg/dL. The “TOTAL PROTEIN” value [3] was 6.37 G/DL, the “URIC ACID” value [3] was 0.63 mg/dL and the “ABSOLUTE BASOPHIL” value [4] was 0 CELLS/uL. For the same compound, the “ABSOLUTE EOSINOPHIL” value [4] was 0 CELLS/uL, the “ABSOLUTE LYMPHOCYTE” value [4] was 9250.67 CELLS/uL and the “ABSOLUTE MONOCYTE” value [4] was 86 CELLS/uL. For the same compound, the “ABSOLUTE SEGMENTED NEUTROPHIL” value [4] was 330 CELLS/uL, the BASOPHIL [4] was 0% and the EOSINOPHIL [4] was 0%. The “ERYTHROCYTE COUNT” value [4] was 6.52 x10E6/uL, the HEMATOCRIT [4] was 38.67% and the HEMOGLOBIN [4] was 14.53 G/DL. The “LEUKOCYTE COUNT” value [4] was 9.67 x10E3/uL, the LYMPHOCYTE [4] was 95.33% and the “MEAN CORPUSCULAR HEMOGLOBIN” value [4] was 22.3 pg. The “MEAN CORPUSCULAR HEMOGLOBIN CONCENTRATION” value [4] was 37.6 G/DL, the “MEAN CORPUSCULAR VOLUME” value [4] was 59.27 fL and the MONOCYTE [4] was 1%. For the same compound, the NEUTROPHIL [4] was 3.67%, the “NUCLEATED RED BLOOD CELLS” value [4] was 0 /100WBC and the “PLATELET COUNT” value [4] was 928.67 x10E3/uL. For the same compound, the “ALANINE AMINOTRANSFERASE” value [4] was 49 u/L, the ALBUMIN [4] was 5 G/DL and the “ALKALINE PHOSPHATASE” value [4] was 440.33 u/L. The “ASPARTATE AMINOTRANSFERASE” value [4] was 68.33 u/L, the “BLOOD UREA NITROGEN” value [4] was 7 mg/dL and the “CARBON DIOXIDE” value [4] was 27 mmol/L. For the same compound, the CHLORIDE [4] was 104.33 MEQ/L, the CHOLESTEROL [4] was 35 mg/dL and the “CREATINE PHOSPHOKINASE” value [4] was 233.67 u/L. The CREATININE [4] was 0.18 mg/dL, the GLUCOSE [4] was 155.67 mg/dL and the “LACTATE DEHYDROGENASE” value [4] was 123.33 u/L. It also gave an LIPASE [4] of 7.33 u/L, a PHOSPHORUS [4] of 11 mg/dL and a POTASSIUM [4] of 5.7 MEQ/L. The SODIUM [4] was 147.73 MEQ/L, the “TOTAL BILIRUBIN” value [4] was 0.13 mg/dL and the “TOTAL PROTEIN” value [4] was 7.03 G/DL. The “URIC ACID” value [4] was 1.5 mg/dL.

From ChEMBL document CHEMBL3885881, “DrugMatrix”
